In paper PMC5363373, “Zirconium tetraazamacrocycle complexes display extraordinary stability and provide a new strategy for zirconium-89-based radiopharmaceutical development” (Chemical Science, 2016):

Assays:
[1] = Biodistribution studies; type: in vivo, female NIH Swiss mice; conditions: mice, over the 72 h experiment
Method in brief: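 Female NIH Swiss mice (6-8 wk, n=6) received 89Zr-labeled complex, 0.55 MBq (15 μCi)/mouse i.v. via tail vein; organs excised at 2, 4, 24, 48, 72 h, weighed and gamma-counted. %ID/g and %ID/organ derived against a weighed, counted standard; mean±SD, two-tailed unpaired t test.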

[2] = In vitro EDTA challenge study; type: physicochemical
Method in brief: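 Each 89Zr-labeled complex incubated at 37 °C for up to 7 days with EDTA (10, 50 or 100 mM; pH 5 or 7) at 1:100, 1:500 and 1:1000 ligand/EDTA ratios, n=4. Intact fraction sampled from 30 min to 7 d by radio-TLC (0.1 M EDTA pH 5 mobile phase) and gamma counting.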

[3] = In vitro metal competition study; type: physicochemical; conditions: PBS pH 7.4, 37 C
Method in brief: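 Each 89Zr-labeled complex (0.1 mM stock) in PBS, pH 7.4, was mixed with 1 mM solutions of Fe(III), Co(II), Zn(II), Cu(II), Mg(II), Ga(III) or Gd(III) salts. Mixtures were incubated at 37 °C for 7 days. 89Zr release was tracked by radio-TLC at 2 h, 1 d, 4 d and 7 d, in triplicate.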

[4] = In vitro serum stability (radio-ITLC); type: in vitro ADME; conditions: 37 C, after 7 days
Method in brief: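 89Zr-labeled complexes (70 μCi, 2.59 MBq) incubated in human serum at 37 °C for 7 days (n=4). Analyzed daily by radio-ITLC on ITLC-SA strips with 0.1 M EDTA (pH 5) mobile phase and gamma counting; SEC in PBS after 7 days.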

- % Intact of 89Zr-complexes ([2]; EDTA 100-fold, pH 5.0, 37 C, 1 h): 97.7 ± 0.2%
- % Intact of 89Zr-complexes ([2]; EDTA 100-fold, pH 5.0, 37 C, 1 d): 84.4 ± 0.9%
- % Intact of 89Zr-complexes ([2]; EDTA 100-fold, pH 5.0, 37 C, 3 d): 67.6 ± 0.9%
- % Intact of 89Zr-complexes ([2]; EDTA 100-fold, pH 5.0, 37 C, 5 d): 49.6 ± 0.6%
- % Intact of 89Zr-complexes ([2]; EDTA 100-fold, pH 5.0, 37 C, 7 d): 42.3 ± 1.2%
- % Intact of 89Zr-complexes ([2]; EDTA 100-fold, pH 7.0, 37 C, 1 h): 99.0 ± 0.2%
- % Intact of 89Zr-complexes ([2]; EDTA 100-fold, pH 7.0, 37 C, 1 d): 90.9 ± 0.8%
- % Intact of 89Zr-complexes ([2]; EDTA 100-fold, pH 7.0, 37 C, 3 d): 86.1 ± 1.1%
- % Intact of 89Zr-complexes ([2]; EDTA 100-fold, pH 7.0, 37 C, 5 d): 75.7 ± 0.8%
- % Intact of 89Zr-complexes ([2]; EDTA 100-fold, pH 7.0, 37 C, 7 d): 72.1 ± 2.0%
- % Intact of 89Zr-complexes ([2]; EDTA 500-fold, pH 5.0, 37 C, 1 h): 97.5 ± 0.6%
- % Intact of 89Zr-complexes ([2]; EDTA 500-fold, pH 5.0, 37 C, 1 d): 80.0 ± 1.2%
- % Intact of 89Zr-complexes ([2]; EDTA 500-fold, pH 5.0, 37 C, 3 d): 47.0 ± 0.4%
- % Intact of 89Zr-complexes ([2]; EDTA 500-fold, pH 5.0, 37 C, 5 d): 22.8 ± 1.8%
- % Intact of 89Zr-complexes ([2]; EDTA 500-fold, pH 5.0, 37 C, 7 d): 12.2 ± 1.5%
- % Intact of 89Zr-complexes ([2]; EDTA 500-fold, pH 7.0, 37 C, 1 h): 98.5 ± 0.2%
- % Intact of 89Zr-complexes ([2]; EDTA 500-fold, pH 7.0, 37 C, 1 d): 90.8 ± 0.9%
- % Intact of 89Zr-complexes ([2]; EDTA 500-fold, pH 7.0, 37 C, 3 d): 77.5 ± 1.4%
- % Intact of 89Zr-complexes ([2]; EDTA 500-fold, pH 7.0, 37 C, 5 d): 66.6 ± 0.5%
- % Intact of 89Zr-complexes ([2]; EDTA 500-fold, pH 7.0, 37 C, 7 d): 58.1 ± 1.4%
- % Intact of 89Zr-complexes ([2]; EDTA 1000-fold, pH 5.0, 37 C, 1 h): 96.5 ± 0.2%
- % Intact of 89Zr-complexes ([2]; EDTA 1000-fold, pH 5.0, 37 C, 1 d): 77.0 ± 1.3%
- % Intact of 89Zr-complexes ([2]; EDTA 1000-fold, pH 5.0, 37 C, 3 d): 38.3 ± 1.5%
- % Intact of 89Zr-complexes ([2]; EDTA 1000-fold, pH 5.0, 37 C, 5 d): 13.4 ± 1.6%
- % Intact of 89Zr-complexes ([2]; EDTA 1000-fold, pH 5.0, 37 C, 7 d): 5.7 ± 1.0%
- % Intact of 89Zr-complexes ([2]; EDTA 1000-fold, pH 7.0, 37 C, 1 h): 98.3 ± 0.1%
- % Intact of 89Zr-complexes ([2]; EDTA 1000-fold, pH 7.0, 37 C, 1 d): 88.6 ± 0.4%
- % Intact of 89Zr-complexes ([2]; EDTA 1000-fold, pH 7.0, 37 C, 3 d): 69.9 ± 1.8%
- % Intact of 89Zr-complexes ([2]; EDTA 1000-fold, pH 7.0, 37 C, 5 d): 58.2 ± 1.3%
- % Intact of 89Zr-complexes ([2]; EDTA 1000-fold, pH 7.0, 37 C, 7 d): 47.4 ± 0.9%
- % Intact of 89Zr-complexes ([3]; Co2+, 2 h): 92.6 ± 0.5%
- % Intact of 89Zr-complexes ([3]; Co2+, 1 d): 88.6 ± 0.3%
- % Intact of 89Zr-complexes ([3]; Co2+, 4 d): 85.8 ± 0.4%
- % Intact of 89Zr-complexes ([3]; Co2+, 7 d): 80.9 ± 1.0%
- % Intact of 89Zr-complexes ([3]; Cu2+, 2 h): 91.9 ± 0.1%
- % Intact of 89Zr-complexes ([3]; Cu2+, 1 d): 86.7 ± 0.7%
- % Intact of 89Zr-complexes ([3]; Cu2+, 4 d): 80.5 ± 0.8%
- % Intact of 89Zr-complexes ([3]; Cu2+, 7 d): 74.1 ± 1.2%
- % Intact of 89Zr-complexes ([3]; Fe3+, 2 h): 92.4 ± 0.5%
- % Intact of 89Zr-complexes ([3]; Fe3+, 1 d): 89.8 ± 0.2%
- % Intact of 89Zr-complexes ([3]; Fe3+, 4 d): 87.2 ± 0.8%
- % Intact of 89Zr-complexes ([3]; Fe3+, 7 d): 85.8 ± 0.8%
- % Intact of 89Zr-complexes ([3]; Ga3+, 2 h): 92.9 ± 0.7%
- % Intact of 89Zr-complexes ([3]; Ga3+, 1 d): 87.9 ± 0.7%
- % Intact of 89Zr-complexes ([3]; Ga3+, 4 d): 86.6 ± 2.3%
- % Intact of 89Zr-complexes ([3]; Ga3+, 7 d): 80.3 ± 0.4%
- % Intact of 89Zr-complexes ([3]; Gd3+, 2 h): 93.9 ± 0.3%
- % Intact of 89Zr-complexes ([3]; Gd3+, 1 d): 90.6 ± 0.3%
- % Intact of 89Zr-complexes ([3]; Gd3+, 4 d): 88.8 ± 0.6%
- % Intact of 89Zr-complexes ([3]; Gd3+, 7 d): 86.3 ± 0.1%
- % Intact of 89Zr-complexes ([3]; Mg2+, 2 h): 93.6 ± 1.0%
- % Intact of 89Zr-complexes ([3]; Mg2+, 1 d): 90.5 ± 0.5%
- % Intact of 89Zr-complexes ([3]; Mg2+, 4 d): 87.4 ± 0.9%
- % Intact of 89Zr-complexes ([3]; Mg2+, 7 d): 93.1 ± 0.8%
- % Intact of 89Zr-complexes ([3]; Zn2+, 2 h): 94.1 ± 0.5%
- % Intact of 89Zr-complexes ([3]; Zn2+, 1 d): 89.4 ± 1.9%
- % Intact of 89Zr-complexes ([3]; Zn2+, 4 d): 71.9 ± 1.7%
- % Intact of 89Zr-complexes ([3]; Zn2+, 7 d): 57.0 ± 1.8%
- Radio-ITLC peak of complex in human serum [4]: 99.2%
SMILES: NC(=O)CN1CCN(CC(N)=O)CCN(CC(N)=O)CCN(CC(N)=O)CC1.[89Zr+4] [89Zr-DOTAM]
- Radioactivity retention in liver and spleen tissues [1]: retained elevated levels of radioactivity
